Patent publication US11787780B2 (CORCEPT THERAPEUTICS INCORPORATED, priority 2020, dated 2023)

What was measured:
[1] = test system: induction of TAT by dexamethasone in HepG2 cells; experiment: Hep G2 TAT assay (inhibition of dexamethasone-induced TAT); format: cell-based, human; conditions: challenge of 100 nM dexamethasone, IC50 converted to Ki by Cheng and Prusoff equation
[2] = target: glucocorticoid receptor (GR) recombinant ligand binding domain (LBD) (Homo sapiens (Human), UniProt P04150); experiment: GR binding fluorescence polarisation (FP) assay; conditions: displacement of fluorescently tagged ligand
glucocorticoid receptor (GR) recombinant ligand binding domain (LBD), sequence (P04150 524-758): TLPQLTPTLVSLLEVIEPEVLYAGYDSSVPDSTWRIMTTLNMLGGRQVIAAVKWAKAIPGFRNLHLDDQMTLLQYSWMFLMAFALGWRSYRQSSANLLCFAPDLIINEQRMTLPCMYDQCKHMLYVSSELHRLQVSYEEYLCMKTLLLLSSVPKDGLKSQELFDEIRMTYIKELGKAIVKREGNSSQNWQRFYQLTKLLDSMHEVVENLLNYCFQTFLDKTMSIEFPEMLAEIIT
Procedure: Binding of test compounds to the glucocorticoid receptor (GR) is determined using a fluorescence polarisation (FP) assay utilising a recombinant ligand binding domain (LBD) of GR. The test compounds are assessed by their ability to displace a fluorescently tagged ligand and detection of the resulting decrease in fluorescence polarisation.

SMILES | IC50 [2] | Ki [1]
[2H]C([2H])([2H])n1ncc(S(=O)(=O)N2CCC(Cc3ccccc3)(c3cc4cnn(-c5ccc(=O)n(C)c5)c4cc3C)C2)n1 (centres unmarked) [Example 296, 5-(5-(3-benzyl-1-((2-(methyl-d3)-2H-1,2,3-triazol-4-yl)sulfonyl)pyrrolidin-3-yl)-6-methyl-1H-indazol-1-yl)-1-methylpyridin-2(1H)-one] | 6.9 nM | 44 nM
Cc1cc2c(cnn2-c2ccc(=O)n(C)c2)cc1C1(Cc2ccccc2)CCN(S(=O)(=O)c2ccccc2F)C1 (centres unmarked) [Example 301, 5-(5-(3-benzyl-1-((2-fluorophenyl)sulfonyl)pyrrolidin-3-yl)-6-methyl-1H-indazol-1-yl)-1-methylpyridin-2(1H)-one] | 4.8 nM | 25 nM
Cc1cc2c(cnn2-c2ccc(=O)n(C)c2)cc1C1(Cc2ccccc2)CCN(S(=O)(=O)c2cccc(C(F)(F)F)n2)C1 (centres unmarked) [Example 303, 5-(5-(3-benzyl-1-((6-(trifluoromethyl)pyridin-2-yl)sulfonyl)pyrrolidin-3-yl)-6-methyl-1H-indazol-1-yl)-1-methylpyridin-2(1H)-one] | 4.4 nM | 24 nM
Cc1cc2c(cnn2-c2ccc(=O)n(C)c2)cc1C1(Cc2ccccc2)CCN(S(=O)(=O)c2ccc(Cl)cc2C#N)C1 (centres unmarked) [Example 313, 2-((3-benzyl-3-(6-methyl-1-(1-methyl-6-oxo-1,6-dihydropyridin-3-yl)-1H-indazol-5-yl)pyrrolidin-1-yl)sulfonyl)-5-chlorobenzonitrile] | 8.3 nM | 50 nM
Cc1cc2c(cnn2-c2ccc(=O)n(C)c2)cc1C1(Cc2ccccc2)CCN(S(=O)(=O)c2ccc(F)cc2F)C1 (centres unmarked) [Example 314, 5-(5-(3-benzyl-1-((2,4-difluorophenyl)sulfonyl)pyrrolidin-3-yl)-6-methyl-1H-indazol-1-yl)-1-methylpyridin-2(1H)-one] | 11 nM | 56 nM
Cc1cc2c(cnn2-c2ccc(=O)n(C)c2)cc1C1(Cc2ccccc2)CCN(S(=O)(=O)c2c(F)cccc2F)C1 (centres unmarked) [Example 315, 5-(5-(3-benzyl-1-((2,6-difluorophenyl)sulfonyl)pyrrolidin-3-yl)-6-methyl-1H-indazol-1-yl)-1-methylpyridin-2(1H)-one] | 6.7 nM | 29 nM
Cc1cc2c(cnn2-c2ccc(=O)n(C)c2)cc1C1(Cc2ccccc2)CCN(S(=O)(=O)c2cc(F)ccc2F)C1 (centres unmarked) [Example 316, 5-(5-(3-benzyl-1-((2,5-difluorophenyl)sulfonyl)pyrrolidin-3-yl)-6-methyl-1H-indazol-1-yl)-1-methylpyridin-2(1H)-one] | 12 nM | 32 nM
Cc1cc2c(cnn2-c2ccc(=O)n(C)c2)cc1C1(Cc2ccccc2)CCN(S(=O)(=O)c2cccc(F)c2F)C1 (centres unmarked) [Example 317, 5-(5-(3-benzyl-1-((2,3-difluorophenyl)sulfonyl)pyrrolidin-3-yl)-6-methyl-1H-indazol-1-yl)-1-methylpyridin-2(1H)-one] | 8.9 nM | 23 nM
COc1cc2c(cnn2-c2ccc(=O)n(C)c2)cc1C1(Cc2ccccc2)CCN(S(=O)(=O)C2CC2)C1 (centres unmarked) [Example 321] | 14 nM | 270 nM
Cc1cc2c(cnn2-c2ccc(=O)n(C)c2)cc1C1(Cc2ccc(F)cc2)CCN(S(=O)(=O)c2cnn(C)c2)C1 (centres unmarked) [Example 323, 5-(5-(3-(4-fluorobenzyl)-1-((1-methyl-1H-pyrazol-4-yl)sulfonyl)pyrrolidin-3-yl)-6-methyl-1H-indazol-1-yl)-1-methylpyridin-2(1H)-one] | 12 nM | 97 nM
Cc1cc2c(cnn2-c2ccc(=O)n(C)c2)cc1C1(Cc2ccc(F)cc2)CCN(S(=O)(=O)c2cnn(C)n2)C1 (centres unmarked) [Example 324, 5-(5-(3-(4-fluorobenzyl)-1-((2-methyl-2H-1,2,3-triazol-4-yl)sulfonyl)pyrrolidin-3-yl)-6-methyl-1H-indazol-1-yl)-1-methylpyridin-2(1H)-one] | 7.5 nM | 64 nM
CC(=O)N1CCC(S(=O)(=O)N2CCC(Cc3ccccc3)(c3cc4cnn(-c5ccc(F)cc5)c4cc3C)C2)CC1 (centres unmarked) [Example 325, 1-(4-((3-benzyl-3-(1-(4-fluorophenyl)-6-methyl-1H-indazol-5-yl)pyrrolidin-1-yl)sulfonyl)piperidin-1-yl)ethan-1-one] | 28 nM | 110 nM

Now from value to compound, other results behind:

IC50 [2] | SMILES | Ki [1]
10 nM | Cc1cc2c(cnn2-c2ccc(=O)n(C)c2)cc1C1(Cc2ccccc2)CCN(S(=O)(=O)c2cc(F)cc(F)c2)C1 (centres unmarked) [Example 297, 5-(5-(3-benzyl-1-((3,5-difluorophenyl)sulfonyl)pyrrolidin-3-yl)-6-methyl-1H-indazol-1-yl)-1-methylpyridin-2(1H)-one] | 36 nM
3.6 nM | Cc1cc2c(cnn2-c2ccc(=O)n(C)c2)cc1C1(Cc2ccccc2)CCN(S(=O)(=O)c2ccc(F)cc2)C1 (centres unmarked) [Example 298, 5-(5-(3-benzyl-1-((4-fluorophenyl)sulfonyl)pyrrolidin-3-yl)-6-methyl-1H-indazol-1-yl)-1-methylpyridin-2(1H)-one] | 37 nM
8.8 nM | Cc1ccc(S(=O)(=O)N2CCC(Cc3ccccc3)(c3cc4cnn(-c5ccc(=O)n(C)c5)c4cc3C)C2)cn1 (centres unmarked) [Example 299, 5-(5-(3-benzyl-1-((6-methylpyridin-3-yl)sulfonyl)pyrrolidin-3-yl)-6-methyl-1H-indazol-1-yl)-1-methylpyridin-2(1H)-one] | 48 nM
4.6 nM | Cc1cc2c(cnn2-c2ccc(=O)n(C)c2)cc1C1(Cc2ccccc2)CCN(S(=O)(=O)c2cncc(F)c2)C1 (centres unmarked) [Example 300, 5-(5-(3-benzyl-1-((5-fluoropyridin-3-yl)sulfonyl)pyrrolidin-3-yl)-6-methyl-1H-indazol-1-yl)-1-methylpyridin-2(1H)-one] | 36 nM
12 nM | Cc1cc2c(cnn2-c2ccc(=O)n(C)c2)cc1C1(Cc2ccccc2)CCN(S(=O)(=O)c2cccc(F)c2)C1 (centres unmarked) [Example 302, 5-(5-(3-benzyl-1-((3-fluorophenyl)sulfonyl)pyrrolidin-3-yl)-6-methyl-1H-indazol-1-yl)-1-methylpyridin-2(1H)-one] | 27 nM
7.5 nM | COc1ccc(S(=O)(=O)N2CCC(Cc3ccccc3)(c3cc4cnn(-c5ccc(=O)n(C)c5)c4cc3C)C2)cc1 (centres unmarked) [Example 304, 5-(5-(3-benzyl-1-((4-methoxyphenyl)sulfonyl)pyrrolidin-3-yl)-6-methyl-1H-indazol-1-yl)-1-methylpyridin-2(1H)-one] | 48 nM
3 nM | Cc1cc2c(cnn2-c2ccc(=O)n(C)c2)cc1C1(Cc2ccccc2)CCN(S(=O)(=O)c2ccc(Cl)cc2)C1 (centres unmarked) [Example 305, 5-(5-(3-benzyl-1-((4-chlorophenyl)sulfonyl)pyrrolidin-3-yl)-6-methyl-1H-indazol-1-yl)-1-methylpyridin-2(1H)-one] | 32 nM
11 nM | COc1ccc(S(=O)(=O)N2CCC(Cc3ccccc3)(c3cc4cnn(-c5ccc(=O)n(C)c5)c4cc3C)C2)cn1 (centres unmarked) [Example 306, 5-(5-(3-benzyl-1-((6-methoxypyridin-3-yl)sulfonyl)pyrrolidin-3-yl)-6-methyl-1H-indazol-1-yl)-1-methylpyridin-2(1H)-one] | 56 nM
8.8 nM | Cc1ccc(S(=O)(=O)N2CCC(Cc3ccccc3)(c3cc4cnn(-c5ccc(=O)n(C)c5)c4cc3C)C2)cc1 (centres unmarked) [Example 307, 5-(5-(3-benzyl-1-tosylpyrrolidin-3-yl)-6-methyl-1H-indazol-1-yl)-1-methylpyridin-2(1H)-one] | 89 nM
14 nM | Cc1cc2c(cnn2-c2ccc(=O)n(C)c2)cc1C1(Cc2ccccc2)CCN(S(=O)(=O)c2ccc(C#N)cc2)C1 (centres unmarked) [Example 308, 4-((3-benzyl-3-(6-methyl-1-(1-methyl-6-oxo-1,6-dihydropyridin-3-yl)-1H-indazol-5-yl)pyrrolidin-1-yl)sulfonyl)benzonitrile] | 62 nM
11 nM | Cc1cncc(S(=O)(=O)N2CCC(Cc3ccccc3)(c3cc4cnn(-c5ccc(=O)n(C)c5)c4cc3C)C2)c1 (centres unmarked) [Example 309, 5-(5-(3-benzyl-1-((5-methylpyridin-3-yl)sulfonyl)pyrrolidin-3-yl)-6-methyl-1H-indazol-1-yl)-1-methylpyridin-2(1H)-one] | 66 nM
11 nM | COc1cccc(S(=O)(=O)N2CCC(Cc3ccccc3)(c3cc4cnn(-c5ccc(=O)n(C)c5)c4cc3C)C2)c1 (centres unmarked) [Example 310, 5-(5-(3-benzyl-1-((3-methoxyphenyl)sulfonyl)pyrrolidin-3-yl)-6-methyl-1H-indazol-1-yl)-1-methylpyridin-2(1H)-one] | 66 nM
3 nM | Cc1cc2c(cnn2-c2ccc(=O)n(C)c2)cc1C1(Cc2ccccc2)CCN(S(=O)(=O)c2cnccc2Cl)C1 (centres unmarked) [Example 311, 5-(5-(3-benzyl-1-((4-chloropyridin-3-yl)sulfonyl)pyrrolidin-3-yl)-6-methyl-1H-indazol-1-yl)-1-methylpyridin-2(1H)-one] | 29 nM
12 nM | Cc1cc2c(cnn2-c2ccc(=O)n(C)c2)cc1C1(Cc2ccccc2)CCN(S(=O)(=O)c2cncc(Cl)c2)C1 (centres unmarked) [Example 312, 5-(5-(3-benzyl-1-((5-chloropyridin-3-yl)sulfonyl)pyrrolidin-3-yl)-6-methyl-1H-indazol-1-yl)-1-methylpyridin-2(1H)-one] | 41 nM
5.1 nM | CCCn1cc(S(=O)(=O)N2CCC(Cc3ccccc3)(c3cc4cnn(-c5ccc(=O)n(C)c5)c4cc3C)C2)cn1 (centres unmarked) [Example 318, 5-(5-(3-benzyl-1-((1-propyl-1H-pyrazol-4-yl)sulfonyl)pyrrolidin-3-yl)-6-methyl-1H-indazol-1-yl)-1-methylpyridin-2(1H)-one] | 48 nM
24 nM | Cc1ncc(S(=O)(=O)N2CCC(Cc3ccccc3)(c3cc4cnn(-c5ccc(=O)n(C)c5)c4cc3C)C2)cn1 (centres unmarked) [Example 322, 5-(5-(3-benzyl-1-((2-methylpyrimidin-5-yl)sulfonyl)pyrrolidin-3-yl)-6-methyl-1H-indazol-1-yl)-1-methylpyridin-2(1H)-one] | 77 nM
